From paper PMC4596572, “Ligand Discovery for the Alanine-Serine-Cysteine Transporter (ASCT2, SLC1A5) from Homology Modeling and Virtual Screening” (PLoS Computational Biology, 2015)
Several values for one entry are separate records, joined by “and”; a condition that tells them apart may be missing. Equal entries are not always repeated.

Legend:
rat ASCT2 = target: T1, rat ASCT2 (Rattus norvegicus, UniProt D3ZJ25); test: Whole-cell patch-clamp recording of ASCT2-associated anion current in transfected HEK293 cells; type: cell-based; settings: for Km: apparent Km for the active compounds from anion current dose response, called Ki in text for the inhibitors L-DOPS and γ-FBP; for Imax, maximum currents relative to 1 mM alanine: whole-cell anion current, membrane potential 0 mV, internal 130 mM NaSCN and 10 mM alanine, negative = outward current (inhibitor); for Anion current activity: at the maximum concentration tested, 500 μM; for Anion current response / ligand character: whole-cell current, result in words
T1 construct: The coding region of the cDNA was subcloned into the EcoRI site of the pBK-CMV vector; expressed in transfected cells; host or cells: HEK293 (human embryonic kidney), transient transfection, pBK-CMV vector
T1 sequence (D3ZJ25 1-555): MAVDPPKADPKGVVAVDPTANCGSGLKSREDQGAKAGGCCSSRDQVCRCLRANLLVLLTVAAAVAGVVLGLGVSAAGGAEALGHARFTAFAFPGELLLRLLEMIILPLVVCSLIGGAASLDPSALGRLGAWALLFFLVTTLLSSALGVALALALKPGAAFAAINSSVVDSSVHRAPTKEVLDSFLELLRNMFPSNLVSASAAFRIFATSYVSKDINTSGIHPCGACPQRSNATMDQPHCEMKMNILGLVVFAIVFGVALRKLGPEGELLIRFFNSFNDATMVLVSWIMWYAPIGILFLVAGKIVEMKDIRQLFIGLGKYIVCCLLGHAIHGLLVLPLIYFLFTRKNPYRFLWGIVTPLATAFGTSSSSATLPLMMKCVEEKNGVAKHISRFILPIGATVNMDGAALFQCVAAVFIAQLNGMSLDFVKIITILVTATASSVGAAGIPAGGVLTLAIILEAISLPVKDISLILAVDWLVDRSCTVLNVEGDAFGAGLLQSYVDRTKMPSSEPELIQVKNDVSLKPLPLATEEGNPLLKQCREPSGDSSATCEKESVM
Source text: (§1) We used transporter-mediated anion current as a measure of transport/inhibition activity […] We have previously shown that anion current is a measure of transport activity, due to the kinetic coupling of transport and anion flux, and this fact is also well established for the homologous glutamate transporters, which have a much more rigorously determined pharmacology. Anion current is activated when the transporter visits certain states in the transport cycle, such as the fully Na^+/substrate occupied state (substrate-induced anion conductance), or the Na^+-bound state (leak conductance). Thus, transported substrates induce anion current and non-transported inhibitors block the leak anion current. […] Functional characterization by patch clamping is a powerful approach when combined with virtual screening that prioritizes molecules from large libraries, but precludes screening of large amounts of compounds due to its labor-intensive nature.
cDNA coding for rat ASCT2 was kindly provided by S. Bröer. The coding region of the cDNA was subcloned into the EcoRI site of the pBK-CMV vector (Stratagene). The cDNA construct was used to transiently transfect human embryonic kidney cells (HEK293, ATCC No. CGL 1573) with leptrime reagent (Polyplus, Ilkrich, France). Transfection was performed as detailed in the supplier’s instructions. Electrophysiological recordings were performed 24–48 h after transfection.
ASCT2-associated whole-cell currents were recorded with an Adams & List EPC7 amplifier (HEKA, Lambrecht, Germany) using voltage-clamp conditions. Open-tip electrode resistances were 2–3 MΩ and the series resistance (R S) was 5–8 MΩ. R S was not compensated in the recordings, as compensation had no effect on the magnitude of the observed currents. The extracellular bath solution contained (in mM): 140 NaMES, 2 MgGluconate2, 2 CaGluconate2, and 10 HEPES (MES = methanesulfonic acid, pH 7.4 / NaOH). The pipette solution contained (in mM): 130 NaSCN, 2 MgCl2, 10 EGTA, 10 HEPES, and 10 L-alanine/cysteine (pH 7.3 / NaOH). Using this intracellular solution, the transporters operate in the Na^+/alanine exchange mode. Here, external alanine is exchanged with internal alanine in the absence of net transport. The exchange mode is associated with the activation of an uncoupled anion current, which was used as an indirect measure of transport activity. The currents were low pass filtered at 3 kHz (EPC7 built-in filter) and digitized with a digitizer board (Digidata 1200, Axon Instruments, Foster City, CA, USA) at a sampling rate of 10–50 kHz (controlled by software, Axon PClamp7). All experiments were performed at room temperature. Rapid solution exchange was essentially performed as described previously. Briefly, substrates and inhibitors were applied to the ASCT2-expressing HEK293 cells with a quartz tube (350 μm tube diameter) positioned at a distance of ≈0.5 mm to the cell. The linear flow rate of the solutions emerging from the opening of the tube was approximately 5–10 cm/s.

Solubility in water = type: physicochemical; settings: required 5% DMSO at concentrations higher than 1 mM
[1] = target: T2, ASCT2 mediated glutamine uptake in C8161 melanoma cells (Homo sapiens, UniProt Q15758); parameters: method as in PMID 24531984; settings: cited from earlier work
T2 construct: C8161 cells (1 × 10^5/well) were incubated with [^3H]-L-glutamine; endogenous in cells; host or cells: C8161 human melanoma cell line
T2 sequence (Q15758 1-541): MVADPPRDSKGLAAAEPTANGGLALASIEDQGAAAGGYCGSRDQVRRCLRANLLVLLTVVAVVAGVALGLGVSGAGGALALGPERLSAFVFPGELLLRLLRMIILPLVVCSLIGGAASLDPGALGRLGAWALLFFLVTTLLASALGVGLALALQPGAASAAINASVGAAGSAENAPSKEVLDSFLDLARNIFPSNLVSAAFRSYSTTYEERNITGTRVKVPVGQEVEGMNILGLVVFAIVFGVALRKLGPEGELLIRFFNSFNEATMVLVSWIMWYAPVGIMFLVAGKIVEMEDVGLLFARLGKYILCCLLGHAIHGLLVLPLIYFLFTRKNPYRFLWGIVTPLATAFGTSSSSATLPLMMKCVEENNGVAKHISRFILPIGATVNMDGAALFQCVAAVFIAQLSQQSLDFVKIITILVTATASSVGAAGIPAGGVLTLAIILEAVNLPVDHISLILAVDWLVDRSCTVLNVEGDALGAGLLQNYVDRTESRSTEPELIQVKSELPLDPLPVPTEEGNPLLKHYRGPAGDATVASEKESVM

ASCT2 = target: T3, ASCT2 (Rattus norvegicus, UniProt D3ZJ25); test: Voltage-jump exchange-mediated transient transport current in ASCT2-expressing cells; type: cell-based; settings: benzylserine 5 mM (S2 Fig)
T3 construct: expressed in transfected cells
T3 sequence (D3ZJ25 1-555): T1 sequence (D3ZJ25 1-555)
Source text: as §1
Supplementary file pcbi.1004477.s002.pdf: S2 Fig Exchange current is mediated by a transported substrate, but not by a non-transported inhibitor. Voltage jumps induce transport-mediated exchange current (due to voltage-dependent re-equilibration of the translocation equilibrium) in the presence of the transported substrate alanine (1 mM, black trace), but not in the presence of the non-transported inhibitor benzylserine (5 mM, red trace). […]

Row | Compound | Km (rat ASCT2) | Imax, maximum currents relative to 1 mM alanine (rat ASCT2) | Anion current response / ligand character (rat ASCT2) | other results
1 | O=C(O)C1NCCS1 (stereo not shown) [thiazolidine-2-carboxylate] | – | – | – | Anion current response (rat ASCT2; at concentrations up to 5 mM): did not elicit any significant response
2 | CC(C)(N)C(=O)O [AIB] | – | – | – | Anion current response (rat ASCT2; at concentrations up to 5 mM): did not elicit any significant response
3 | N[C@H](C(=O)O)[C@@H]1CC(Cl)=NO1 [Acivicin, reference compound] | 5100 ± 1500 µM | 0.45 ± 0.03 | – | –
4 | O=C(O)[C@H](Cc1c[nH]c2ccccc12)NCCc1ccccc1 [N-(2-phenylethyl)tryptophan] | – | – | – | Solubility in water (Solubility in water): poorly soluble in water; Anion current activity (rat ASCT2): inactive
5 | N[C@H](C(=O)O)[C@H](O)c1ccc(O)c(O)c1 [L-DOPS, reference compound] | 1950 ± 900 µM | -0.03 ± 0.01 | weak inhibitor | Ki (rat ASCT2; apparent affinity, inhibition of leak anion conductance, read-out: Ki): ~2 mM; Inhibition of alanine-induced responses (rat ASCT2; at concentrations up to 5 mM): unable to significantly inhibit alanine-induced responses
6 | O=C(O)[C@H]1NCC[C@H]1O [cis-3-hydroxyproline] | 19 ± 10 µM | 1.39 and 1.39 ± 0.1 | activated inwardly-directed anion currents | –
7 | N[C@@H](COCc1ccccc1)C(=O)O [benzylserine] | – | – | – | IC50 [1]: 5.3 mM; Exchange-mediated transient transport currents upon voltage jumps (ASCT2): unable to elicit exchange-mediated transient transport currents
8 | Cc1ccc2[nH]c(C(=O)O)c(CN(C)Cc3ncc[nH]3)c2c1 [3-{[(1H-imidazol-2-ylmethyl)(methyl)amino]methyl}-5-methyl-1H-indole-2-carboxylic acid] | – | – | – | Solubility in water (Solubility in water): poorly soluble in water; Anion current activity (rat ASCT2): inactive
9 | O=C(O)[C@@H]1CCCN1 [proline, reference compound] | – | – | not an ASCT2 ligand | –
10 | O=C(O)C1CC(OCc2ccccc2)CN1 (stereo not shown) [4-hydroxyproline-benzylether] | – | – | not significantly different from zero | –

Now from value to compound, other results behind:

Row | Km (rat ASCT2) | Imax, maximum currents relative to 1 mM alanine (rat ASCT2) | Compound | Anion current response / ligand character (rat ASCT2) | other results
11 | 410 ± 20 µM | 1 | C[C@H](N)C(=O)O [Alanine] | – | –
12 | 1370 ± 680 µM | 0.68 ± 0.08 | CC(C)(S)[C@@H](N)C(=O)O [Penicillamine, reference compound] | activated inwardly-directed anion currents | –
